Experimental data taken from patent publication US20150296773A1, “COMPOSITIONS COMPRISING A […] MIXTURE AND AN INSECTICIDE” (Bayer CropScience AG, priority 2012, published 2015).

Tests used:
Assay type in all cases: in vivo
[1] = tested on: Myzus persicae; assay: Myzus persicae spray test (Example G, Chinese cabbage leaf-disks); details: for Efficacy in % after 6 d: mortality after 6 d; for Efficacy in % after 1 d: mortality after 1 d
Description: (§1) Myzus persicae—Spray Test
(§2) Solvent: 78.0 parts by weight acetone • 1.5 parts by weight dimethylformamide Emulsifier: 0.5 parts by weight alkylarylpolyglycolether
(§3) To produce a suitable preparation of active compound, 1 part by weight of active compound is mixed with the stated amount of solvent and emulsifier, and the concentrate is diluted with emulsifier-containing water to the desired concentration. To produce a suitable preparation of a spore suspension the spores are diluted with emulsifier-containing water to the desired concentration.
Chinese cabbage (Brassica pekinensis) leaf—disks infected with all instars of the green peach aphid (Myzus persicae) are sprayed with a preparation of the active ingredient of the desired concentration.
After the specified period of time, mortality in % is determined 100% means all aphids have been killed; 0% means none of the aphids have been killed. The mortality values determined thus are recalculated using the Colby-formula (see above).

[2] = tested on: Tetranychus urticae; assay: Tetranychus urticae spray test, OP-resistant (Example H, French beans); details: for Efficacy in % after 6 d: mortality after 6 d; for Efficacy in % after 2 d: mortality after 2 d
Description: (§4) Tetranychus urticae—Spray Test, OP-Resistant
as §2, §3
French beans (Phaseolus vulgaris) which are heavily infested with all stages of the two spotted spidermite (Tetranychus urticae), are sprayed with a preparation of the active ingredient of the desired concentration.
After the specified period of time, mortality in % is determined 100% means all spider mites have been killed and 0% means none of the spider mites have been killed. The mortality values determined thus are recalculated using the Colby-formula (see above).

[3] = tested on: Myzus persicae; assay: Myzus persicae spray test (Example A, pepper leaves); details: for Efficacy in % after 5 d: mortality after 5 d; for Efficacy in % after 4 d: mortality after 4 d
Description: as §1
(§5) Solvent: 7 parts by weight of dimethylformamide Emulsifier: 2 parts by weight of alkylaryl polyglycolether
(§6) To produce a suitable preparation of active compound, 1 part by weight of active compound is mixed with the stated amount of solvent and emulsifier, and the concentrate is diluted with emulsifier-containing water to the desired concentration. To produce a suitable preparation of a spore suspension the spores are diluted with emulsifier-containing water to the desired concentration Ammonium salt and/or penetration enhancer in a dosage of 1000 ppm are added to the desired concentration, if necessary.
Pepper leaves (Capsicum annuum) which are heavily infested by the green peach aphid (Myzus persicae) are treated by being sprayed with the preparation of the active compound of the desired concentration.
After the specified period of time, mortality in % is determined 100% means all the aphids have been killed; 0% means none of the aphids have been killed. The mortality values determined thus are recalculated using the Colby-formula (see above).

[4] = tested on: Aphis gossypii; assay: Aphis gossypii spray test (Example B, cotton leaves); details: mortality after 1 d
Description: Aphis gossypii—Spray Test
as §5, §6
Cotton leaves (Gossypium hirsutum) which are heavily infested by the cotton aphid (Aphis gossypii) are treated by being sprayed with the preparation of the active compound of the desired concentration.
After the specified period of time, the mortality in % is determined 100% means all the aphids have been killed; 0% means none of the aphids have been killed. The mortality values determined thus are recalculated using the Colby-formula (see above).

[5] = tested on: Phaedon cochleariae; assay: Phaedon cochleariae spray test (Example D, Chinese cabbage leaf-disks); details: mortality after 6 d
Description: Phaedon cochleariae—Spray Test
Solvent: 78.0 parts by weight of acetone • • 1.5 parts by weight of dimethylformamide Emulsifier: 0.5 parts by weight of alkylaryl polyglycolether
as §3
Chinese cabbage (Brassica pekinensis) leaf-disks are sprayed with a preparation of the active ingredient of the desired concentration. Once dry, the leaf disks are infested with mustard beetle larvae (Phaedon cochleariae).
After the specified period of time, mortality in % is determined 100% means all beetle larvae have been killed and 0% means none of the beetle larvae have been killed. The mortality values determined thus are recalculated using the Colby-formula (see above).

[6] = tested on: Spodoptera frugiperda; assay: Spodoptera frugiperda spray test (Example E, maize leaf sections); details: 0.032 g ai/ha; mortality after 6 d
Description: Spodoptera frugiperda—Spray Test
as §2
as §3, with “preparation of the active compound,” for “preparation of active compound,”, “preparation of spore suspension” for “preparation of a spore suspension”
Maize (Zea mais) leaf sections are sprayed with a preparation of the active ingredient of the desired concentration. Once dry, the leaf sections are infested with fall armyworm larvae (Spodoptera frugiperda).
After the specified period of time, mortality in % is determined 100% means all caterpillars have been killed and 0% means none of the caterpillars have been killed. The mortality values determined thus are recalculated using the Colby-formula (see above).

[7] = tested on: Spodoptera frugiperda; assay: Spodoptera frugiperda test (SPODFR) (Example F, maize leaves); details: 0.075 g ai/ha; mortality after 3 d
Description: Spodoptera frugiperda—Test (SPODFR)
Solvent: 7 parts by weight of dimethylformamide Emulsifier: 1 part by weight of alkylaryl polyglycolether
as §6, with “concentration” for “concentration,”
Maize leaves (Zea mais) are treated by being sprayed with the preparation of the active compound of the desired concentration and are infested with caterpillars of the fall army worm (Spodoptera frugiperda). The mortality values determined thus are recalculated using the Colby-formula (see above).
After the specified period of time, mortality in % is determined 100% means all the caterpillars have been killed; 0% means none of the caterpillars have been killed.

[8] = tested on: Tetranychus urticae; assay: Tetranychus urticae spray test, OP-resistant (Example C, bean plants); details: 0.8 ppm; mortality after 6 d
Description: as §4, §5
as §6, with “concentration” for “concentration,”
Bean plants (Phaseolus vulgaris) which are heavily infested with all stages of the two-spotted spider mite (Tetranychus urticae) are treated by being sprayed with the preparation of the active compound of the desired concentration.
After the specified period of time, mortality in % is determined 100% means all the spider mites have been killed; 0% means none of the spider mites have been killed. The mortality values determined thus are recalculated using the Colby-formula (see above).

N#Cc1nn(-c2c(Cl)cc(C(F)(F)F)cc2Cl)c(N)c1[S+]([O-])C(F)(F)F (centres unmarked) [Fipronil]
Efficacy in % after 6 d ([1]; 100 g ai/ha): 0%
Efficacy in % after 6 d ([2]; 100 g ai/ha): 0%

CNC(=O)c1cc(Cl)cc(C)c1NC(=O)c1cc(Br)nn1-c1ncccc1Cl [Chlorantraniliprole]
Efficacy in % after 5 d ([3]; 8 ppm): 60%
Efficacy in % after 1 d ([4]; 4 ppm): 10%
Efficacy in % after 1 d ([4]; 8 ppm): 50%

Cc1c(F)c(F)c(COC(=O)[C@@H]2[C@H](/C=C(\Cl)C(F)(F)F)C2(C)C)c(F)c1F (racemic) [Tefluthrin]
Efficacy in % after 6 d ([5]; 10 g ai/ha): 0%

CC1(C)[C@H](C(=O)O[C@H](C#N)c2cccc(Oc3ccccc3)c2)[C@@H]1C=C(Br)Br [Deltamethrin]
Efficacy in % after 6 d ([2]; 4 g ai/ha): 0%

CNC(=O)c1cc(C#N)cc(C)c1NC(=O)c1cc(Br)nn1-c1ncccc1Cl [Cyantraniliprole]
Efficacy in % after 6 d ([5]; 0.8 g ai/ha): 0%
Efficacy in % after 6 d ([1]; 0.8 g ai/ha): 0%

CN1COCN(Cc2cnc(Cl)s2)/C1=N\[N+](=O)[O-] [Thiamethoxam]
Efficacy in % after 1 d ([1]; 0.8 g ai/ha): 70%

CS/C(C)=N\OC(=O)N(C)SN(C)C(=O)O/N=C(\C)SC [Thiodicarb]
Efficacy in % after 6 d ([1]; 100 g ai/ha): 0%

Cc1cc(C)c(C2=C(OC(=O)CC(C)(C)C)C3(CCCC3)OC2=O)c(C)c1 [Spiromesifen]
Efficacy in % after 6 d ([2]; 0.8 g ai/ha): 30%

N#C/N=C1\SCCN1Cc1ccc(Cl)nc1 [Thiacloprid]
Efficacy in % after 6 d ([1]; 0.16 g ai/ha): 0%

O=[N+]([O-])NC1=NCCN1Cc1ccc(Cl)nc1 [Imidacloprid]
Efficacy in % after 1 d ([1]; 0.16 g ai/ha): 70%

Spinosad
Efficacy in % after 2 d ([2]; 4 g ai/ha): 0%

Spinetoram
Efficacy in % after 6 d [6]: 33%
Efficacy in % after 2 d ([2]; 4 g ai/ha): 20%

CN/C(=N\[N+](=O)[O-])NCc1cnc(Cl)s1 [Clothianidin]
Efficacy in % after 4 d ([3]; 0.125 ppm): 3%
Efficacy in % after 4 d ([3]; 0.25 ppm): 10%
Efficacy in % after 4 d ([3]; 0.5 ppm): 65%
Efficacy in % after 1 d ([4]; 0.25 ppm): 3%
Efficacy in % after 1 d ([4]; 0.5 ppm): 8%
Efficacy in % after 6 d ([5]; 20 g ai/ha): 50%

Cc1cc(C(F)(C(F)(F)F)C(F)(F)F)ccc1NC(=O)c1cccc(I)c1C(=O)NC(C)(C)CS(C)(=O)=O [Flubendiamide]
Efficacy in % after 3 d [7]: 18%

CNC(=O)Oc1cc(C)c(SC)c(C)c1 [Methiocarb]
Efficacy in % after 6 d ([1]; 500 g ai/ha): 0%
Efficacy in % after 6 d ([2]; 100 g ai/ha): 20%

O=C1C=C(N(Cc2ccc(Cl)nc2)CC(F)F)CO1 [Flupyradifurone]
Efficacy in % after 6 d ([1]; 0.8 g ai/ha): 0%

CC(c1ccc(C(F)(F)F)nc1)S(C)(=O)=NC#N (centres unmarked) [Sulfoxaflor]
Efficacy in % after 6 d ([1]; 0.16 g ai/ha): 70%

Cc1cc(F)c(-n2nc(C(F)(F)F)nc2N)cc1[S+]([O-])CC(F)(F)F (centres unmarked) [I277, 1-{2-fluoro-4-methyl-5-[(2,2,2-trifluorethyl)sulfinyl]phenyl}-3-(trifluoromethyl)-1H-1,2,4-triazol-5-amine]
Efficacy in % after 6 d [8]: 25%
Efficacy in % after 6 d ([2]; 4 g ai/ha): 70%

Abamectin
Efficacy in % after 5 d ([3]; 2 ppm): 30%

CC1(C)C(C=C(Cl)Cl)C1C(=O)OC(C#N)c1ccc(F)c(Oc2ccccc2)c1 (stereo not drawn) [β-Cyfluthrin, beta-Cyfluthrin]
Efficacy in % after 6 d ([1]; 0.16 g ai/ha): 0%
Efficacy in % after 6 d ([2]; 4 g ai/ha): 0%

CCOC(=O)OC1=C(c2cc(C)ccc2C)C(=O)N[C@]12CC[C@@H](OC)CC2 [Spirotetramat]
Efficacy in % after 6 d ([1]; 0.8 g ai/ha): 0%
Efficacy in % after 6 d ([2]; 0.8 g ai/ha): 0%
